Measured values taken from US8993559B2, “Use of ibogamine congeners for treating obesity” (Albany Medical College, priority 2008, dated 2015).

Columns and labels:
[1] = tested on: rats; assay: Drug self-administration and water-reinforced responding in rats (earlier studies); assay type: in vivo, rat
Description: Other work has extended the “anti-addictive” effect of 18-MC to oral intake of ethanol. In all cases, these effects last for at least 24 hours. […] Unlike 18-MC, ibogaine and many other iboga alkaloid congeners (approximately 30 tested) decrease responding for water as well as for drugs. And it was precisely this unique specificity that led to development and study of 18-MC.

[2] = active metabolite; cited from earlier work

Compound	responding for drugs ([1]; rat, in vivo)	responding for water (non-drug reinforcer) ([1]; same doses that decrease drug self-administration)	presence in plasma as metabolite of 18-MC [2]
ibogaine [reference compound]	decrease	decrease	–
COC(=O)[C@@]12C[C@H]3C[C@H](CCO)[C@@H]1N(CCc1c2[nH]c2ccccc12)C3 [18-hydroxycoronaridine]	–	–	present in plasma in low concentrations
